The values that follow come from US7211566B2 (Universite De Sherbrooke, priority 2003, dated 2007).

One series is described as follows: blood. As to conditions: rat, 37° C., up to 4 hours.
A further series in a line: serum. As to conditions: rat, 37° C., up to 4 hours.
A short description of a further series: plasma. As to conditions: rat, 37° C., up to 4 hours.
Series [1] is described as follows: human plasma as a source of aminopeptidase M (AmM). To be noted: up to 60 min.
Series [2] concerns angiotensin converting enzyme (ACE). Put plainly: Purified ACE from rabbit lungs (Sigma, St. Louis, Mo.) dissolved in PBS (50 mM, pH 7.5, containing 300 mM NaCl and 10 μM ZnCl2). As to conditions: 37° C., up to 60 min.
The test system of a further series is aminopeptidases. As to conditions: cited from earlier work.
Series [3] deals with carboxypeptidases of the M type (CPM). As to conditions: cited from earlier work.
Series [4] has as its system carboxypeptidases of the N type (CPN). As to conditions: cited from earlier work.
The target of another series is T1, BKB1 receptor (Homo sapiens, UniProt P46663).
T1 sequence (P46663 1-353): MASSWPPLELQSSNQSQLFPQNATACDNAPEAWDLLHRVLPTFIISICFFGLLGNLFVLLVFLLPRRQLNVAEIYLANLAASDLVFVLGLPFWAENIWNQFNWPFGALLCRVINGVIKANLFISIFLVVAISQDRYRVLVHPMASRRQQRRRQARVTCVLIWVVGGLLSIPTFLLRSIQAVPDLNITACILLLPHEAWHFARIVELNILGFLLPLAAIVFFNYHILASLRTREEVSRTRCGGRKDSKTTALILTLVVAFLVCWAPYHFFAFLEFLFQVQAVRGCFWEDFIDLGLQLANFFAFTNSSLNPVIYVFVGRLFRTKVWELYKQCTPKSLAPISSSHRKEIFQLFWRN
To be noted: Gobeil et al. 1996; cited from earlier work.

Series [5] concerns STZ diabetic mice. Put plainly: Hot plate test, type-1 diabetic hyperalgesia. As to conditions: 400 μg/kg i.p. In kind it is in vivo. The protocol: (§1) Male CD-1 mice weighting between 25–30 g (Charles River Breeding Laboratory, St-Constant, QC, Canada) were used. The mice were housed four by cage with free access to food and water. They were maintained under conditions of standard lighting, (alternating 12-h light/dark cycle), temperature (22±0.5° C.) and humidity (60±10%) with food and water available at libitum. Animals were used only once in a given experiment. Experiments were conducted between 10:00 and 18:00 h.
(§2) Streptozotocin (Pharmacia & Upjohn Incorporation, Mississauga, ON, Canada) was dissolved in saline at a pH of 4.5 and administered to mice i.p. The BKB1 agonist desArg^9BK and compound c were dissolved in saline and administered to mice i.p.
(§3) Insulin-dependent diabetes mellitus (IDDM) was induced in mice using STZ. Male CD-1 mice were given a single high i.p. dose of STZ (200 mg/kg) (McEvoy et al., 1984, J Clin Invest 74, 715–722). […] Blood glucose levels were determined with an automatic analyzer (Glucometer Elite XL, Bayer Incorporation, Toronto, Ontario, Canada) using glucose oxidase/potassium ferricyanide reagent strips. […]
The hot plate test was adapted from the technique of Eddy and Leimbach (1953, J Pharmacol Exp Ther 107, 385–389). […] When the pain threshold is reached the animal starts to react by licking its hind paw or to jump, and the reaction time is recorded with a built-in timer, with a maximum cut-off time of 30 s to avoid tissue damage. […]
(§4) The effect of the selected drugs on nociception was determined by converting the hot plate, the plantar stimulation, the tail immersion or the tail flick responses from latencies into MPE (Maximum Percent Effect) according to the following equation (Bhargava and Zhao, 1996, Neuropeptides, 30, 219–223): […]
(§5) In all tests, pre-treatment latencies were determined three times with an interval of 24 h starting three days before the injection of STZ or saline and the mean was calculated in order to obtain stable pre-drug response latency. […]

Series [6] concerns STZ diabetic mice. Put plainly: Plantar stimulation test, type-1 diabetic hyperalgesia. In kind it is in vivo. The protocol:
(§6) Male CD-1 mice weighting between 25–30 g (Charles River Breeding Laboratory, St-Constant, QC, Canada) were used. The mice were housed four by cage with free access to food and water. They were maintained under conditions of standard lighting, (alternating 12-h light/dark cycle), temperature (22±0.5° C.) and humidity (60±10%) with food and water available at libitum. Animals were used only once in a given experiment. Experiments were conducted between 10:00 and 18:00 h. […]
(§7) Insulin-dependent diabetes mellitus (IDDM) was induced in mice using STZ. […] Blood glucose levels were determined with an automatic analyzer (Glucometer Elite XL, Bayer Incorporation, Toronto, Ontario, Canada) using glucose oxidase/potassium ferricyanide reagent strips. […]
In the plantar stimulation test, the method of Hargreaves et al. (Hargreaves et al., 1988, Pain, 32, 77–88) was used to access the hind-paw nociceptive withdrawal thresholds of a free moving mouse to thermal stimuli. […] Each latency value was determined from two applications of the radiant heat stimulus, separated by 1–2 min intervals, and the mean of the two measures is taken. […]
as §5

Series [7] relates to STZ diabetic mice. Description: Tail immersion test, type-1 diabetic hyperalgesia. In kind it is in vivo. The protocol:
as §6, §7
The tail-immersion test was performed according to Coderre and Rollman (Coderre and Rollman, 1983, Life Sci 32, 2139–2146). […] The latency between submersion of the tail and its removal from the water by the animal was recorded, with a maximum cut-off time of 10 seconds to minimize tail skin tissue damage. […]
as §4

For series [8], the system named is STZ diabetic mice. Description: Tail flick test, type-1 diabetic hyperalgesia. The series is classed as in vivo. The protocol:
as §1, §2, §3
The tail flick test of D'Amour and Smith (D'Amour and Smith, 1941, J Pharmacol Exp Ther 72, 74–79) modified for mice was used. […] The radiant light is focussed on a blackened spot in the mid region of the animal's tail (2–3 cm from the tip of the tail) and the latency between the application of the stimulation light and the flicking of the animal's tail is recorded. When the animal flicks its tail, its exposes a photocell in the apparatus immediately below the tail and the instrument is automatically stopped and the time is recorded. […]
as §4

In the case of “Ac-Orn[Oic^2,(α-Me)Phe^5,D-βNal^7,Ile^8]desArg^9BK”, the not cleaved is >90% parent remaining after 4 hours in the series “blood”; >90% parent remaining after 4 hours in the series “serum”; >90% parent remaining after 4 hours in “plasma”; “Peptide metabolism 0 % (60 min)” in [1]; “Peptide metabolism 0 % (60 min)” in series [2].
Consider Lys Arg Pro Pro Gly Phe Ser Pro Phe Arg, for which the fragment found entry with aminopeptidases was “BK”. Further, the cleaved bond entry in series [3] and in series [4] was “Phe8-Arg9” each time.
On to “Lys-desArg^9BK (KRPPGFSPF; Lys - des-Arg9 Bradykinin) [BKB1 receptor agonist]”, for which the “potency relative to desArg^9BK” value in the series with BKB1 receptor is given as 100 fold.
On to desArg^9BK, for which the “potentiation of hyperalgesic response” value in the series on STZ diabetic mice [5] (STZ diabetic mice) is 98%. Besides, the “change in nociceptive response” value in the series with STZ diabetic mice [5] (control mice) and with STZ diabetic mice [6] (healthy mice) was “did not induce significant changes” throughout. For the same substance, the MPE with STZ diabetic mice [6] (STZ diabetic mice, 400 μg/kg i.p., 20 min after injection) was −21.03±0.75%; with STZ diabetic mice [7] (STZ diabetic mice, i.p., 20 min after administration), −19.23±0.60%. For the same substance, in the series on STZ diabetic mice [7] (control mice), the “change in tail immersion latencies” value was “did not show significant changes”. The “potentiating effect on hyperalgesic activity” value in the series with STZ diabetic mice [8] (STZ diabetic mice, maximal after 10 min) is on record as 48%. Besides, the “change in tail flick test” value in the series with STZ diabetic mice [8] (control mice, 400 μg/kg i.p.) is reported as “did not induce significant changes”.
